In patent US10563263B2, “Genetic polymorphisms associated with statin response and cardiovascular diseases, methods of detection and uses thereof” (CELERA CORPORATION, priority 2010, dated 2020):

Tested on: CVD (CHD or stroke)
Assay: WOSCOPS: SNP by pravastatin treatment interaction, logistic regression (synergy index), CVD endpoint
Format: in vivo, human
Conditions: for OR (synergy index), WOSCOPS, Prava vs Placebo: CVD endpoint, Caseonly; for OR (SNP x pravastatin treatment interaction): WOSCOPS pravastatin vs placebo
From the text: CARE was a secondary prevention trial and WOSCOPS was a primary prevention trial.
The CHD endpoint was defined in the analyses herein of CARE as a composite endpoint of fatal CHD, definite non-fatal MI, or revascularization, and was defined in the analyses herein of WOSCOPS as a composite endpoint of death from CHD, nonfatal MI, or revascularization. In both the CARE and WOSCOPS analyses herein, the CVD endpoint was defined as a composite endpoint of CHD or stroke. […] Revascularization, which can include percutaneous transluminal coronary angioplasty (PTCA), stent placement, and coronary artery bypass graft (CABG), are medical interventions that indicate the presence of CHD.
Cohort and case-only study designs were used to identify SNPs associated with response to statin treatment.
For each SNP, a logistic regression model having treatment status as the dependent variable and SNP as the independent predictor variable was performed, with terms for age, sex and race included in the model as covariates. The anti-log of the regression coefficient corresponding to the SNP is an estimate of the synergy index (SI) (Davis et al., “Imputing gene-treatment interactions when the genotype distribution is unknown using case-only and putative placebo analyses-a new method for the Genetics of Hypertension Associated Treatment (GenHAT) study”, Statistics in Medicine 23: (2004), pages 2413-2427). The SI is a ratio of odds ratios: for example in the CARE and WOSCOPS studies, the SI represents the factor by which the odds-ratio of statin treatment, compared with placebo, among major homozygous individuals is multiplied by in order to obtain the odds-ratio of treatment vs. placebo among heterozygous individuals; and multiplied by a second time to obtain the odds-ratio of treatment vs. placebo in minor homozygous individuals. […] In a randomized clinical trial, genotype and treatment are independent by design.

How did the “OR (synergy index), WOSCOPS, Prava vs Placebo” value (“OR (synergy index), WOSCOPS” below) (SNP rs304601 (A1 A, A2 G), rec model) turn out when CC[C@H](C)C(=O)O[C@H]1C[C@H](O)C=C2C=C[C@H](C)[C@H](CC[C@@H](O)C[C@@H](O)CC(=O)O)[C@H]21 [Pravastatin, pravastatin] was run?
Its value is 3.93.

What about the “OR (synergy index), WOSCOPS” value (SNP rs988146 (A1 G, A2 A), add model) of the same molecule?
Its value is 0.80.

What about the “OR (SNP x pravastatin treatment interaction)” value (SNP rs1241967, allele A1=T, model REC, Imputed) of the same molecule?
Its value is 0.5915.

And the “OR (SNP x pravastatin treatment interaction)” value (SNP rs1247340, allele A1=C, model ADD, Imputed)?
Its value is 1.51.

And the “OR (SNP x pravastatin treatment interaction)” value (SNP rs1247340, allele A1=C, model DOM, Imputed)?
Its value is 1.767.

What about the “OR (SNP x pravastatin treatment interaction)” value (SNP rs1247341, allele A1=C, model ADD, Imputed) of the same molecule?
Its value is 1.524.

What about the “OR (SNP x pravastatin treatment interaction)” value (SNP rs1247341, allele A1=C, model DOM, Imputed) of the same molecule?
Its value is 1.795.

What about the “OR (SNP x pravastatin treatment interaction)” value (SNP rs1247343, allele A1=C, model DOM, Imputed) of the same molecule?
Its value is 1.681.

And the “OR (SNP x pravastatin treatment interaction)” value (SNP rs1335721, allele A1=A, model REC, Imputed)?
The value was 0.5999.

What about the “OR (SNP x pravastatin treatment interaction)” value (SNP rs1336382, allele A1=T, model DOM, Imputed) of the same molecule?
Its value is 1.458.

And the “OR (SNP x pravastatin treatment interaction)” value (SNP rs1336383, allele A1=T, model DOM, Imputed)?
Its value is 1.458.

What about the “OR (SNP x pravastatin treatment interaction)” value (SNP rs1336407, allele A1=T, model DOM, Imputed) of the same molecule?
Its value is 1.458.

And the “OR (SNP x pravastatin treatment interaction)” value (SNP rs1336409, allele A1=T, model DOM, Imputed)?
The value was 1.458.

What about the “OR (SNP x pravastatin treatment interaction)” value (SNP rs1336596, allele A1=A, model DOM, Imputed) of the same molecule?
The value was 0.6728.

And the “OR (SNP x pravastatin treatment interaction)” value (SNP rs1355715, allele A1=T, model ADD, Imputed)?
The value was 0.5755.

What about the “OR (SNP x pravastatin treatment interaction)” value (SNP rs1363273, allele A1=C, model REC, Imputed) of the same molecule?
The value was 0.5817.

And the “OR (SNP x pravastatin treatment interaction)” value (SNP rs1373601, allele A1=A, model DOM, Imputed)?
Its value is 0.5287.

What about the “OR (SNP x pravastatin treatment interaction)” value (SNP rs1395748, allele A1=G, model DOM, Imputed) of the same molecule?
The value was 0.6603.

And the “OR (SNP x pravastatin treatment interaction)” value (SNP rs1414865, allele A1=T, model DOM, Imputed)?
Its value is 1.433.

What about the “OR (SNP x pravastatin treatment interaction)” value (SNP rs1414873, allele A1=A, model DOM, Imputed) of the same molecule?
The value was 1.458.

And the “OR (SNP x pravastatin treatment interaction)” value (SNP rs1414876, allele A1=C, model DOM, Imputed)?
The value was 1.458.

What about the “OR (SNP x pravastatin treatment interaction)” value (SNP rs1424643, allele A1=G, model ADD, Imputed) of the same molecule?
Its value is 1.554.

And the “OR (SNP x pravastatin treatment interaction)” value (SNP rs1424643, allele A1=G, model DOM, Imputed)?
The value was 1.592.

And the “OR (SNP x pravastatin treatment interaction)” value (SNP rs1424648, allele A1=T, model DOM, Imputed)?
The value was 1.619.

What about the “OR (synergy index), WOSCOPS” value (SNP rs1559557 (A1 G, A2 A), add model) of the same molecule?
The value was 1.53.

And the “OR (synergy index), WOSCOPS” value (SNP rs1877527 (A1 G, A2 A), add model)?
The value was 0.77.

And the “OR (synergy index), WOSCOPS” value (SNP rs2132241 (A1 A, A2 G), add model)?
Its value is 0.70.

What about the “OR (synergy index), WOSCOPS” value (SNP rs2270588 (A1 G, A2 A), add model) of the same molecule?
Its value is 0.75.

And the “OR (synergy index), WOSCOPS” value (SNP rs9325191 (A1 A, A2 C), add model)?
Its value is 0.69.

And the “OR (synergy index), WOSCOPS” value (SNP rs9346951 (A1 A, A2 G), add model)?
Its value is 1.25.

What about the “OR (synergy index), WOSCOPS” value (SNP rs10787944 (A1 G, A2 A), dom model) of the same molecule?
The value was 1.45.

And the “OR (SNP x pravastatin treatment interaction)” value (SNP rs11959206, allele A1=A, model REC, Imputed)?
Its value is 0.5862.

And the “OR (SNP x pravastatin treatment interaction)” value (SNP rs12038613, allele A1=C, model REC, Imputed)?
The value was 0.5999.

And the “OR (SNP x pravastatin treatment interaction)” value (SNP rs12151417, allele A1=T, model DOM, Imputed)?
Its value is 1.573.

What about the “OR (SNP x pravastatin treatment interaction)” value (SNP rs12153185, allele A1=T, model DOM, Imputed) of the same molecule?
Its value is 0.6973.

And the “OR (SNP x pravastatin treatment interaction)” value (SNP rs12182651, allele A1=T, model DOM, Imputed)?
Its value is 2.24.

What about the “OR (SNP x pravastatin treatment interaction)” value (SNP rs12235345, allele A1=C, model DOM, Imputed) of the same molecule?
The value was 1.42.

What about the “OR (SNP x pravastatin treatment interaction)” value (SNP rs12324786, allele A1=T, model REC, Imputed) of the same molecule?
The value was 2.796.

What about the “OR (SNP x pravastatin treatment interaction)” value (SNP rs12336958, allele A1=G, model DOM, Imputed) of the same molecule?
Its value is 1.46.

And the “OR (SNP x pravastatin treatment interaction)” value (SNP rs12407412, allele A1=C, model ADD, Imputed)?
The value was 1.382.

What about the “OR (SNP x pravastatin treatment interaction)” value (SNP rs12407412, allele A1=C, model DOM, Imputed) of the same molecule?
Its value is 1.401.

And the “OR (SNP x pravastatin treatment interaction)” value (SNP rs12418971, allele A1=C, model REC, Imputed)?
Its value is 1.699.

What about the “OR (SNP x pravastatin treatment interaction)” value (SNP rs12420184, allele A1=G, model DOM, Imputed) of the same molecule?
The value was 0.6518.

And the “OR (SNP x pravastatin treatment interaction)” value (SNP rs12433968, allele A1=T, model DOM, Imputed)?
Its value is 0.7213.

What about the “OR (SNP x pravastatin treatment interaction)” value (SNP rs12445477, allele A1=A, model DOM, Imputed) of the same molecule?
Its value is 0.4063.

What about the “OR (SNP x pravastatin treatment interaction)” value (SNP rs12447191, allele A1=T, model ADD, Genotyped) of the same molecule?
The value was 0.6489.

What about the “OR (SNP x pravastatin treatment interaction)” value (SNP rs12447191, allele A1=T, model DOM, Genotyped) of the same molecule?
The value was 0.5081.

And the “OR (SNP x pravastatin treatment interaction)” value (SNP rs12465349, allele A1=A, model REC, Imputed)?
The value was 1.587.

What about the “OR (SNP x pravastatin treatment interaction)” value (SNP rs12509758, allele A1=C, model DOM, Imputed) of the same molecule?
The value was 1.856.

And the “OR (SNP x pravastatin treatment interaction)” value (SNP rs12515472, allele A1=A, model DOM, Imputed)?
The value was 1.531.

And the “OR (SNP x pravastatin treatment interaction)” value (SNP rs12548906, allele A1=G, model ADD, Imputed)?
The value was 1.496.

And the “OR (SNP x pravastatin treatment interaction)” value (SNP rs12596240, allele A1=G, model DOM, Imputed)?
Its value is 0.6708.

What about the “OR (SNP x pravastatin treatment interaction)” value (SNP rs12618781, allele A1=A, model DOM, Imputed) of the same molecule?
The value was 0.5446.

What about the “OR (SNP x pravastatin treatment interaction)” value (SNP rs12678600, allele A1=A, model DOM, Imputed) of the same molecule?
Its value is 0.6479.

What about the “OR (SNP x pravastatin treatment interaction)” value (SNP rs12692229, allele A1=T, model ADD, Imputed) of the same molecule?
The value was 1.315.

What about the “OR (SNP x pravastatin treatment interaction)” value (SNP rs12713324, allele A1=T, model DOM, Imputed) of the same molecule?
Its value is 1.584.

And the “OR (SNP x pravastatin treatment interaction)” value (SNP rs12719415, allele A1=T, model DOM, Imputed)?
Its value is 0.6887.

And the “OR (SNP x pravastatin treatment interaction)” value (SNP rs12820589, allele A1=G, model ADD, Imputed)?
The value was 1.758.
